Data: BindingDB's records for doi:10.1038/nchembio.614 (National Cancer Institute-Frederick, 2011)
Numbered stars: 1 amine (or outer) side, 2 acyl side, 3 side chain; on linkers, the order of the positions; unused ones are H or OH. Square brackets hold non-standard residues; d marks the D form. Peptide text beside a SMILES is read from it. ξ: configuration not given here. X3 = C[C@@H](OP(=O)(O)OCC[C@@H](O)CO)[C@H](N[*:1])C(=O)[*:2]; X20 = O=C([C@H](Cc1cncn1CC[C@@H](O)CO)N[*:1])[*:2]; X13 = COP(=O)(O)O[C@H](C)[C@H](N[*:1])C(=O)[*:2]; pT = C[C@@H](OP(=O)(O)O)[C@H](N)C(=O)O; ξP = O=C(O)C1CCCN1

Each compound was assayed against Serine/threonine-protein kinase PLK1 (Homo sapiens, UniProt P53350) (assay: Inhibition Assay). Conditions: pH 8; 25 °C.
Serine/threonine-protein kinase PLK1, sequence (P53350 whole entry): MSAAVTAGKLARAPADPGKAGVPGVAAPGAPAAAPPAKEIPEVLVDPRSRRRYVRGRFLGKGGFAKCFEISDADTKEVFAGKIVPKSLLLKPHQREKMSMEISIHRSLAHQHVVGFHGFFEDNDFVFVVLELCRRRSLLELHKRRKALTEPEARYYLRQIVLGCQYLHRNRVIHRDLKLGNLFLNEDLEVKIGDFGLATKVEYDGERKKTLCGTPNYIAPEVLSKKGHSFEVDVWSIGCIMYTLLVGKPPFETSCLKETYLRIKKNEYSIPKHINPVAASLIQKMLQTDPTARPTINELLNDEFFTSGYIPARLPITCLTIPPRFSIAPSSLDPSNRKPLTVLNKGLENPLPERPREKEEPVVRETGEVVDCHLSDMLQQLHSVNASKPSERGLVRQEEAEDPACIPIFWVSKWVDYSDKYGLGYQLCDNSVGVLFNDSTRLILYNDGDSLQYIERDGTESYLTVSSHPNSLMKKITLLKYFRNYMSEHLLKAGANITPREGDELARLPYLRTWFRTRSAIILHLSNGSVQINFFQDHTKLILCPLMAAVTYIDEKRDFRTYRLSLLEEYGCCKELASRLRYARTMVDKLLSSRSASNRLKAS
Excerpt: The evaluation of Plk1 PBD binding affinities of the synthetic compounds using an ELISA-based 96-well assay.

IC50 [µM] | SMILES
> 200 | CC(=O)N1CCCC1C(=O)N[C@@H](CC(C)C)C(=O)N[C@@H](Cc1cnc[nH]1)C(=O)N[C@@H](CO)C(=O)N[C@H](C(N)=O)[C@@H](C)OP(=O)(O)OCC[C@@H](O)CO (stereo partly drawn) [Phosphodiester analog, 3b] (Ac-[ξP]LHS[X3]-NH2)
> 200 | CC(=O)N1CCCC1C(=O)N[C@@H](CC(C)C)C(=O)N[C@@H](Cc1cncn1CC[C@@H](O)CO)C(=O)N[C@@H](CO)C(=O)N[C@H](C(N)=O)[C@@H](C)OP(=O)(O)O (stereo partly drawn) [Phosphodiester analog, 4b] (Ac-[ξP]L[X20]S[pT]-NH2)

SMILES | IC50 [µM]
COP(=O)(O)O[C@H](C)[C@H](NC(=O)[C@H](CO)NC(=O)[C@H](Cc1cnc[nH]1)NC(=O)[C@H](CC(C)C)NC(=O)C1CCCN1C(C)=O)C(N)=O (stereo partly drawn) [Phosphodiester analog, 3a] (Ac-[ξP]LHS[X13]-NH2) | > 200
